From patent publication US10577373B2, “TYK2 inhibitors and uses thereof” (Nimbus Lakshmi, Inc., priority 2017, dated 2020)
Where two headings read alike, the source gives them in different places.

How the values were obtained:
[1] = tested on: IL-12 induced STAT4 phophorylation mediated by Tyk2/JAK2 (heterodimeric complex); assay: IL-12 Induced pSTAT4 in Human PBMC; type: cell-based; conditions: 1.7 ng/mL IL-12
Excerpt: The IL-12 Induced pSTAT4 assay evaluates the inhibition of IL-12 induced STAT4 phophorylation mediated by Tyk2/JAK2 (heterodimeric complex).

[2] = tested on: GM-CSF induced STAT5 phosphorylation mediated by the JAK2/JAK2 homdimeric complex; assay: GM-CSF Induced pSTAT5 in Human PBMC; conditions: GM-CSF 5 ng/mL for 20 minutes, pSTAT5
Excerpt: Human PBMC are isolated from buffy coat and are stored frozen for assays as needed.

[3] = Homo sapiens, PBMC, 20 min, read-out: PBMC_GMCSF_pSTAT5 IC50, human PBMC
[4] = read-out: PBMC_GMCSF_pSTAT5 IC50, human PBMC

CNc1cc(Nc2cc(Cl)cn([C@@H]3CCCOC3)c2=O)nc2c(C(=O)N[C@@H]3C[C@@H]3F)cnn12 [I-773]
IC50 [1]: < 100 nM | IC50 [2, 3]: > 12500 nM

CNc1cc(Nc2cccc(-c3cn(C)nc3F)n2)nc2c(C(=O)N[C@@H]3C[C@@H]3F)cnn12 [I-860]
IC50 [1]: < 100 nM | IC50 [2, 3]: > 50000 nM

CNc1cc(Nc2cccn(-c3nc(C)co3)c2=O)nc2c(C(=O)NC3CC3)cnn12 [I-368]
IC50 [1]: < 100 nM | IC50 [2, 3]: > 12500 nM

CNc1cc(Nc2cccn(-c3cn(C)nc3F)c2=O)nc2c(C(=O)N[C@H]3C[C@H]3F)cnn12 [I-607]
IC50 [1]: < 100 nM | IC50 [2, 3]: > 50000 nM

CNc1cc(-c2cn(C(C)C)c3ncc(C)cc23)nc2c(C(N)=O)cnn12 [I-255]
IC50 [1]: < 100 nM | IC50 [2, 3]: > 50000 nM

CNc1cc(-c2cn(CCN3CCCCC3)c3ncccc23)nc2c(C(=O)N[C@@H]3CC[C@H]3O)cnn12 [I-837]
IC50 [1]: < 100 nM | IC50 [2, 3]: > 12500 nM

[2H]C([2H])([2H])Nc1cc(Nc2cccnc2OC)nc2c(C(=O)N[C@@H]3C[C@@H]3F)cnn12 (stereo in doubt) [I-374, N-((1R,2S)-2-fluorocyclopropyl)-5-((2-methoxypyridin-3-yl)amino)-7-((methyl-d3)amino)pyrazolo[1,5-a]pyrimidine-3-carboxamide]
IC50 [1]: < 100 nM | IC50 [2, 3]: > 50000 nM

CNc1cc(Nc2cccnc2OC)nc2c(C(=O)NCC(C)(C)CO)cnn12 [I-346]
IC50 [1]: < 100 nM | IC50 [2, 3]: > 2500 nM

CNc1cc(Nc2cccn(-c3nccs3)c2=O)nc2c(C(=O)N[C@H]3C[C@H]3F)cnn12 [I-243]
IC50 [1]: < 100 nM | IC50 [2, 3]: > 2500 nM

CNc1cc(Nc2cccn(-c3cccnc3)c2=O)nc2c(C(=O)NC3CC3)cnn12 [I-747]
IC50 [1]: 100 to 500 nM | IC50 [2, 3]: > 12500 nM

CNc1cc(Nc2cccn(-c3cnn(C)c3)c2=O)nc2c(C(=O)NC3CC3)cnn12 [I-295]
IC50 [1]: < 100 nM | IC50 [2, 3]: > 50000 nM

CNc1cc(Nc2cccn(-c3ncc(C)s3)c2=O)nc2c(C(=O)N[C@H]3CC[C@@H]3O)cnn12 (stereo in doubt) [I-676, N-(2-hydroxycyclobutyl)-7-(methylamino)-5-((1-(5-methylthiazol-2-yl)-2-oxo-1,2-dihydropyridin-3-yl)amino)pyrazolo[1,5-a]pyrimidine-3-carboxamide]
IC50 [1]: < 100 nM | IC50 [2, 3]: > 2500 nM

CNc1cc(Nc2cc(F)cn([C@H]3CCCOC3)c2=O)nc2c(C(=O)N[C@H]3C[C@H]3F)cnn12 [I-559]
IC50 [1]: < 100 nM | IC50 [2, 3]: > 50000 nM

CNc1cc(Nc2cccn(-c3cc(C)on3)c2=O)nc2c(C(=O)N[C@H]3C[C@H]3F)cnn12 [I-161]
IC50 [1]: < 100 nM | IC50 [2, 3]: > 12500 nM

CNc1cc(Nc2cccnc2OC2CC2)nc2c(C(=O)NC3CCC3O)cnn12 (stereo not drawn) [I-392, 5-((2-cyclopropoxypyridin-3-yl)amino)-N-(2-hydroxycyclobutyl)-7-(methylamino)pyrazolo[1,5-a]pyrimidine-3-carboxamide]
IC50 [1]: < 100 nM | IC50 [2, 3]: > 50000 nM

CNc1cc(Nc2cccc([C@H]3CCCOC3)n2)nc2c(C(=O)N[C@@H]3CC[C@H]3O)cnn12 [I-667]
IC50 [1]: < 100 nM | IC50 [2, 3]: > 12500 nM

CNc1cc(Nc2cccnc2OC)nc2c(C(=O)NC[C@H](C)CO)cnn12 [I-483]
IC50 [1]: < 100 nM | IC50 [2, 3]: > 50000 nM

CNc1cc(Nc2cccn(C3CCCCC3)c2=O)nc2c(C(=O)N[C@@H]3CC[C@@H]3O)cnn12 [I-1000]
IC50 [1]: < 100 nM | IC50 [2, 3]: > 50000 nM

CNc1cc(-c2cn(CCN3CCN(C)CC3)c3ncccc23)nc2c(C(=O)N[C@H]3CC[C@@H]3OC)cnn12 [I-952]
IC50 [1]: 100 to 500 nM | IC50 [2, 3]: > 2500 nM

CNc1cc(Nc2cccn(C[C@@H]3CCCCO3)c2=O)nc2c(C(=O)NC3CC3)cnn12 [I-413]
IC50 [1]: < 100 nM | IC50 [2, 3]: > 50000 nM

CNc1cc(Nc2cccc3ocnc23)nc2c(C(=O)N[C@@H]3CC[C@H]3O)cnn12 [I-857]
IC50 [1]: 100 to 500 nM | IC50 [2, 4]: > 50000 nM

CNc1cc(Nc2cccn([C@H]3CC[C@H](OC)CC3)c2=O)nc2c(C(=O)N[C@H]3CC[C@@H]3O)cnn12 [I-540]
IC50 [1]: < 100 nM | IC50 [2, 3]: > 12500 nM

CNc1cc(Nc2cc(Cl)cn([C@H]3CCCN(C)C3)c2=O)nc2c(C(=O)N[C@@H]3C[C@@H]3F)cnn12 [I-854]
IC50 [1]: < 100 nM | IC50 [2, 3]: > 50000 nM

CNc1cc(Nc2cccn(CC3CCCCO3)c2=O)nc2c(C(=O)N[C@H]3C[C@H]3F)cnn12 (stereo partly drawn) [I-365]
IC50 [1]: < 100 nM | IC50 [2, 3]: > 50000 nM

CNc1cc(Nc2cccn(-c3cc(C)n(C)n3)c2=O)nc2c(C(=O)N[C@H]3C[C@H]3F)cnn12 [I-137]
IC50 [1]: < 100 nM | IC50 [2, 3]: > 50000 nM

CNc1cc(Nc2cccn(-c3cccc(C(C)(C)O)n3)c2=O)nc2c(C(=O)N[C@H]3C[C@H]3F)cnn12 [I-123]
IC50 [1]: < 100 nM | IC50 [2, 3]: > 50000 nM

[2H]C([2H])([2H])Nc1cc(Nc2cccnc2OC2CC2)nc2c(C(=O)N[C@@H]3C[C@@H]3F)cnn12 (stereo in doubt) [I-375, 5-((2-cyclopropoxypyridin-3-yl)amino)-N-((1R,2S)-2-fluorocyclopropyl)-7-((methyl-d3)amino)pyrazolo[1,5-a]pyrimidine-3-carboxamide]
IC50 [1]: < 100 nM | IC50 [2, 3]: > 50000 nM

CNc1cc(Nc2cc(Cl)cn([C@H]3CCCOC3)c2=O)nc2c(C(=O)NC3CC3)cnn12 [I-782]
IC50 [1]: < 100 nM | IC50 [2, 3]: > 50000 nM

CNc1cc(Nc2cccn(-c3ccc(C4CC4)nn3)c2=O)nc2c(C(=O)N[C@H]3C[C@H]3F)cnn12 [I-165]
IC50 [1]: < 100 nM | IC50 [2, 3]: > 2500 nM

CNc1cc(Nc2cc(Cl)cn(-c3ccn(C4CC4)n3)c2=O)nc2c(C(=O)N[C@H]3C[C@H]3F)cnn12 [I-332]
IC50 [1]: < 100 nM | IC50 [2, 3]: > 2500 nM

CNc1cc(Nc2cccnc2OC(F)F)nc2c(C(=O)N[C@H]3C[C@H]3F)cnn12 [I-153]
IC50 [1]: < 100 nM | IC50 [2, 3]: > 12500 nM

CNc1cc(Nc2cc(Cl)cn(-c3ccc(C)nn3)c2=O)nc2c(C(=O)N[C@H]3C[C@H]3F)cnn12 [I-164]
IC50 [1]: < 100 nM | IC50 [2, 3]: > 50000 nM

CNc1cc(Nc2cccc(N3CCCC3=O)n2)nc2c(C(=O)NC3CC3)cnn12 [I-7]
IC50 [1]: < 100 nM | IC50 [2, 3]: > 12500 nM

CNc1cc(Nc2cc(F)cnc2OC2CC2)nc2c(C(=O)N[C@H]3C[C@H]3F)cnn12 [I-275]
IC50 [1]: < 100 nM | IC50 [2, 3]: > 50000 nM

CNc1cc(Nc2cccn([C@H]3CC[C@@](C)(OC)CC3)c2=O)nc2c(C(=O)NC3CC3)cnn12 [I-359]
IC50 [1]: 100 to 500 nM | IC50 [2, 3]: > 12500 nM

CNc1cc(Nc2cc(Cl)cn(-c3ccnc(C)n3)c2=O)nc2c(C(=O)N[C@H]3C[C@H]3F)cnn12 [I-317]
IC50 [1]: < 100 nM | IC50 [2, 3]: > 2500 nM

CNc1cc(Nc2cccc([C@@H]3CCCOC3)n2)nc2c(C(=O)N[C@@H]3CC[C@H]3O)cnn12 [I-665]
IC50 [1]: < 100 nM | IC50 [2, 3]: > 2500 nM

CNc1cc(Nc2cccc3ocnc23)nc2c(C(=O)N[C@@H]3CC[C@@H]3O)cnn12 [I-661]
IC50 [1]: < 100 nM | IC50 [2, 4]: > 12500 nM

CNc1cc(Nc2cc(F)cn(-c3ccccn3)c2=O)nc2c(C(=O)NC3CCC3)cnn12 [I-193]
IC50 [1]: < 100 nM | IC50 [2, 3]: > 12500 nM

CNc1cc(Nc2cccn([C@H]3CC[C@H](OC)CC3)c2=O)nc2c(C(=O)NC3CC3)cnn12 [I-343]
IC50 [1]: < 100 nM | IC50 [2, 3]: > 12500 nM

CNc1cc(Nc2cc(C)cn(-c3cnn(C)c3)c2=O)nc2c(C(=O)N[C@H]3C[C@H]3F)cnn12 [I-235]
IC50 [1]: < 100 nM | IC50 [2, 3]: > 2500 nM

CNc1cc(-c2c[nH]c3c(C)cc(C)cc23)nc2c(C(N)=O)cnn12 [I-36, 5-(5,7-dimethyl-1H-indol-3-yl)-7-(methylamino)pyrazolo[1,5-a]pyrimidine-3-carboxamide]
IC50 [1]: < 100 nM | IC50 [2, 3]: > 12500 nM

CNc1cc(Nc2cccn([C@H]3CC[C@H](OC)CC3)c2=O)nc2c(C(=O)NC[C@H](C)CO)cnn12 [I-829]
IC50 [1]: < 100 nM | IC50 [2, 3]: > 50000 nM

CCn1cc(Cl)cc(Nc2cc(NC)n3ncc(C(=O)NC4CC4)c3n2)c1=O [I-133, 5-((5-chloro-1-ethyl-2-oxo-1,2-dihydropyridin-3-yl)amino)-N-cyclopropyl-7-(methylamino)pyrazolo[1,5-a]pyrimidine-3-carboxamide]
IC50 [1]: < 100 nM | IC50 [2, 3]: > 12500 nM

CNc1cc(Nc2cccn([C@H]3CC[C@H](OC)CC3)c2=O)nc2c(C(=O)N[C@@H]3CC[C@H]3O)cnn12 [I-635]
IC50 [1]: < 100 nM | IC50 [2, 3]: > 50000 nM

CNc1cc(Nc2cccn([C@H]3CCCOC3)c2=O)nc2c(C(=O)NC3CCC3)cnn12 [I-354]
IC50 [1]: < 100 nM | IC50 [2, 3]: > 2500 nM

CNc1cc(Nc2cc(Cl)cn(-c3cnn(C)c3)c2=O)nc2c(C(=O)N[C@H]3C[C@H]3F)cnn12 [I-312]
IC50 [1]: < 100 nM | IC50 [2, 3]: > 12500 nM

CNc1cc(Nc2cc(C)cc(F)c2)nc2c(C(=O)NC3CC3)cnn12 [I-6]
IC50 [1]: < 100 nM | IC50 [2, 3]: > 50000 nM

CNc1cc(-c2cn(C3CC3)c3ncccc23)nc2c(C(=O)NC3CC3)cnn12 [I-960, N-cyclopropyl-5-(1-cyclopropyl-1H-pyrrolo[2,3-b]pyridin-3-yl)-7-(methylamino)pyrazolo[1,5-a]pyrimidine-3-carboxamide]
IC50 [1]: < 100 nM | IC50 [2, 3]: > 50000 nM

CNc1cc(Nc2cccnc2OC)nc2c(C(=O)NO)cnn12 [I-710, N-hydroxy-5-((2-methoxypyridin-3-yl)amino)-7-(methylamino)pyrazolo[1,5-a]pyrimidine-3-carboxamide]
IC50 [1]: 100 to 500 nM | IC50 [2, 3]: > 50000 nM

CNc1cc(Nc2cccnc2OC2CCC2)nc2c(C(=O)N[C@H]3C[C@H]3F)cnn12 [I-170]
IC50 [1]: < 100 nM | IC50 [2, 3]: > 50000 nM

CNc1cc(Nc2cc(C)cn(-c3cnn(C)c3)c2=O)nc2c(C(N)=O)cnn12 [I-31]
IC50 [1]: 100 to 500 nM | IC50 [2, 3]: > 300 nM

[2H]C([2H])([2H])Oc1ncccc1Nc1cc(NC)n2ncc(C(=O)N[C@H]3CC[C@@H]3O)c2n1 [I-373]
IC50 [1]: < 100 nM | IC50 [2, 3]: > 50000 nM

CNc1cc(Nc2cc(F)cn(-c3ccc(C)nn3)c2=O)nc2c(C(=O)N[C@H]3C[C@H]3F)cnn12 [I-198]
IC50 [1]: < 100 nM | IC50 [2, 3]: > 2500 nM
